Conditions in all cases: Compound concentration 10 µM
Test [1] deals with Histamine H1 receptor (Homo sapiens) (UniProt P35367).
For test [2], the target named is Muscarinic acetylcholine receptor M3 (Homo sapiens) (UniProt P20309).
Test [3] addresses Sodium-dependent dopamine transporter (Homo sapiens) (UniProt Q01959).
Test [4] has as its target T1, 5-hydroxytryptamine receptor 1A (Homo sapiens) (UniProt P08908).
T1 sequence (whole entry): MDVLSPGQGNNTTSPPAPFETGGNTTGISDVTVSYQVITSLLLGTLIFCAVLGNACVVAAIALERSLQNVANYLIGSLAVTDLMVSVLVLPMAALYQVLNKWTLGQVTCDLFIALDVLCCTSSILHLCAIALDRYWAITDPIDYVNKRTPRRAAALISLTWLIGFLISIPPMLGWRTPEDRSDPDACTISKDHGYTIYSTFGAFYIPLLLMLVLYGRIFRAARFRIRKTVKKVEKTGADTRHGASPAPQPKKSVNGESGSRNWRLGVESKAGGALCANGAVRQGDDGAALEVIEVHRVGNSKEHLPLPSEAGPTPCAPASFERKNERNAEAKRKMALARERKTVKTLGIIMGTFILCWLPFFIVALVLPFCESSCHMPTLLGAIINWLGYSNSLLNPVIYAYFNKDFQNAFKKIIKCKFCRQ

Test [5] addresses T2, D(4) dopamine receptor (Homo sapiens) (UniProt P21917).
T2 sequence (whole entry): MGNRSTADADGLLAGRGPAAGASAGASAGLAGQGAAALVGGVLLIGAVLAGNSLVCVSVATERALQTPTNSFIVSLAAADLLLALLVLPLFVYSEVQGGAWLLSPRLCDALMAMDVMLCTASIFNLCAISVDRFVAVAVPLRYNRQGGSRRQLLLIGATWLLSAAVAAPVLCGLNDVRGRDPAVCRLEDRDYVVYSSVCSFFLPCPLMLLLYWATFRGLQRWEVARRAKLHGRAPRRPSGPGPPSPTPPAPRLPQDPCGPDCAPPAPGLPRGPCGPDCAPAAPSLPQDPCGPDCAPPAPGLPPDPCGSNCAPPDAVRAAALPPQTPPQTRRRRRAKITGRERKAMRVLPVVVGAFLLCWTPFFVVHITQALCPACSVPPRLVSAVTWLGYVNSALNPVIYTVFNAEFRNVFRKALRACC

Test [6] has as its target 5-hydroxytryptamine receptor 2B (Homo sapiens) (UniProt P41595).
Test [7] deals with D(3) dopamine receptor (Homo sapiens) (UniProt P35462).
The target in test [8] is T3, Alpha-1D adrenergic receptor (Homo sapiens) (UniProt P25100).
T3 sequence (whole entry): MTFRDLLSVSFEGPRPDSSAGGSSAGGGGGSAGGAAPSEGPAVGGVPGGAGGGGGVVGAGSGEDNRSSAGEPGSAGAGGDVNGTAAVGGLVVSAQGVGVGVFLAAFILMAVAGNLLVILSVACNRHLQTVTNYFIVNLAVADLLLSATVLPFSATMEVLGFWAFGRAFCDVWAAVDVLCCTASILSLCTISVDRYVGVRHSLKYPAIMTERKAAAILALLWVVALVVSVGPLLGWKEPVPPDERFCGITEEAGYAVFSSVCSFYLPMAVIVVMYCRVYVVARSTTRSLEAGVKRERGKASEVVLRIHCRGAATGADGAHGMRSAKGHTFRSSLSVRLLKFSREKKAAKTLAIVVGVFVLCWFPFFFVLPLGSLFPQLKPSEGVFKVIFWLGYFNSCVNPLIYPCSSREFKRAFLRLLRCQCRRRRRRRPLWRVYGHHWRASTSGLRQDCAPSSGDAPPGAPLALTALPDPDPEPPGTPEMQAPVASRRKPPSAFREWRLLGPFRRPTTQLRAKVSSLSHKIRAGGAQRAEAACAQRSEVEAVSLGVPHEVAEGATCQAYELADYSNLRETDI

For test [9], the target named is Beta-2 adrenergic receptor (Homo sapiens) (UniProt P07550).
Test [10] deals with Sodium-dependent noradrenaline transporter (Homo sapiens) (UniProt P23975).
The target of test [11] is Histamine H4 receptor (Homo sapiens) (UniProt Q9H3N8).
In test [12] the target is T4, Alpha-2B adrenergic receptor (Homo sapiens) (UniProt P18089).
T4 sequence (whole entry): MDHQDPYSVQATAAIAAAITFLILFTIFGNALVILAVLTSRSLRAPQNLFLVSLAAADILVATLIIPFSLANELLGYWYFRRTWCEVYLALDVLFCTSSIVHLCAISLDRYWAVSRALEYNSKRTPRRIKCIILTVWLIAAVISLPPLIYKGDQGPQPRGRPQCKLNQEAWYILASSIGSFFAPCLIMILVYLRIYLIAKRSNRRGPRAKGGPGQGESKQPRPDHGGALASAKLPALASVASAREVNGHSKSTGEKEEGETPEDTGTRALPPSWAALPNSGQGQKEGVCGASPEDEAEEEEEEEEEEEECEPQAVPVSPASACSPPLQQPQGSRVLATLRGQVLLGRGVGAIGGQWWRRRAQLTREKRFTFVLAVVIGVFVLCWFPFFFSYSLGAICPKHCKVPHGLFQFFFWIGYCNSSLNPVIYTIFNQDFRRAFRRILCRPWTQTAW

Test [13] addresses T5, Muscarinic acetylcholine receptor M4 (Homo sapiens) (UniProt P08173).
T5 sequence (whole entry): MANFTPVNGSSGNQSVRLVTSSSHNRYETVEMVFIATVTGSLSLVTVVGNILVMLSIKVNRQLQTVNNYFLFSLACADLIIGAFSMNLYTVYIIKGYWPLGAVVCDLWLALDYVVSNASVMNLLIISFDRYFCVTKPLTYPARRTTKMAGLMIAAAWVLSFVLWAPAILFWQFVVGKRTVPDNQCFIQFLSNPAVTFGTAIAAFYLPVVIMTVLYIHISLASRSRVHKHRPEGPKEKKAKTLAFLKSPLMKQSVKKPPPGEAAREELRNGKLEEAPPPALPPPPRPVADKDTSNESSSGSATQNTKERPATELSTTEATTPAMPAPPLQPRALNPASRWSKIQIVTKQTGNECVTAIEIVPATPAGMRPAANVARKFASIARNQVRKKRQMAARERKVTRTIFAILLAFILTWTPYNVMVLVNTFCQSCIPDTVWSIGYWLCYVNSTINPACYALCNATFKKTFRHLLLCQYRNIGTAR

Test [14] deals with 5-hydroxytryptamine receptor 5A (Homo sapiens) (UniProt P47898).

Each structure is given as a SMILES string.

In general, inhibition refers to the relative decrease from the control value, in per cent.

Sequence of Histamine H1 receptor (Homo sapiens) (P35367 whole entry): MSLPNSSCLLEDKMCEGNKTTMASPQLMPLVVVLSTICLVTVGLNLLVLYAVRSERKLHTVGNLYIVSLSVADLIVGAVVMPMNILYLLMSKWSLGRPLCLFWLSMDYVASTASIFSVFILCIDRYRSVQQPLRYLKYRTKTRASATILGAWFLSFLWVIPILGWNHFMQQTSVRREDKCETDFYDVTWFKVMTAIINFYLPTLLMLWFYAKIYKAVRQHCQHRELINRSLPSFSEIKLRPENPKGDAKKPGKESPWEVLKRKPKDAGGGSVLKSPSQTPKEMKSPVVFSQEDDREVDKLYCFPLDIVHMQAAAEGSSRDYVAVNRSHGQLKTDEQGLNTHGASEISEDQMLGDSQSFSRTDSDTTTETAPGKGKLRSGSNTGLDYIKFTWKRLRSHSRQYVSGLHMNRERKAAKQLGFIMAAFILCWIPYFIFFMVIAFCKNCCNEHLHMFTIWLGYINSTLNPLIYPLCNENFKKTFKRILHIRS
Sequence of Sodium-dependent noradrenaline transporter (Homo sapiens) (P23975 whole entry): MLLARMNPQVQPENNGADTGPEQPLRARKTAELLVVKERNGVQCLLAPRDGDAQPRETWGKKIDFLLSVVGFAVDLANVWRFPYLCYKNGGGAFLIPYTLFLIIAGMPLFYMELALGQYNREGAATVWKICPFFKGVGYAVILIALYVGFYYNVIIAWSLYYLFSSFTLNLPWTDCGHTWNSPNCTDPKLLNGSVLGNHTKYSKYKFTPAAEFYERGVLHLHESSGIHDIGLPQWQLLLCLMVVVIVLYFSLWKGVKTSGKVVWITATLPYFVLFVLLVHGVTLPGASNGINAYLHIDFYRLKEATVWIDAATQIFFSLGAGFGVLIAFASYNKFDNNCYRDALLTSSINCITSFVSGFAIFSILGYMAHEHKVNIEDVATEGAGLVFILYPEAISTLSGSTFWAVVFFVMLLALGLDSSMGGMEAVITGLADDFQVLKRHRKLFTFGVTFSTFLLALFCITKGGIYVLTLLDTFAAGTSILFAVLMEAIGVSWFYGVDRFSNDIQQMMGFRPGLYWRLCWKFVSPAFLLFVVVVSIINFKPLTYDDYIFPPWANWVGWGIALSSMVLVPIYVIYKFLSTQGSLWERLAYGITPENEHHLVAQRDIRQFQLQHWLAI
Sequence of Histamine H4 receptor (Homo sapiens) (Q9H3N8 whole entry): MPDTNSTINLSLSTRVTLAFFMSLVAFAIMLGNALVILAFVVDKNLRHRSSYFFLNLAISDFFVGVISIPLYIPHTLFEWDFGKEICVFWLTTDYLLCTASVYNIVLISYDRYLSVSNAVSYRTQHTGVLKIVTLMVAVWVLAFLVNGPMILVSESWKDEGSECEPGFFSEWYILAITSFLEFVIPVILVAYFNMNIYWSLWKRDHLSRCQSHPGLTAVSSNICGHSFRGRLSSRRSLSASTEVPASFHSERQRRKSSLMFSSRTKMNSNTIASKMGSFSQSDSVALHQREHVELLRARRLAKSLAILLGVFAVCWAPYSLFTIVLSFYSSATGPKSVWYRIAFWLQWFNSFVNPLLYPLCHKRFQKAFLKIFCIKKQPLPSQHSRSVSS
Sequence of Beta-2 adrenergic receptor (Homo sapiens) (P07550 whole entry, looked up): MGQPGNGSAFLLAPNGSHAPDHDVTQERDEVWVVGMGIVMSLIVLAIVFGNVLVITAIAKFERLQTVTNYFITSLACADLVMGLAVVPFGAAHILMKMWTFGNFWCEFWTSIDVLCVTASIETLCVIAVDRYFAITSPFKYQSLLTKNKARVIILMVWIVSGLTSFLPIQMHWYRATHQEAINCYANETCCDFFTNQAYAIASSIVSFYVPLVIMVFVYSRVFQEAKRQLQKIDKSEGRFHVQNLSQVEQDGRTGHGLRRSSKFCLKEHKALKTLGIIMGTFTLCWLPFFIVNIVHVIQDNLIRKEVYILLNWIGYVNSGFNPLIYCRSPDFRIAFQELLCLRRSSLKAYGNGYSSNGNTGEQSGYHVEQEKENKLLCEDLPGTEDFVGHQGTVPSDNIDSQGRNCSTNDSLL
Sequence of D(3) dopamine receptor (Homo sapiens) (P35462 whole entry): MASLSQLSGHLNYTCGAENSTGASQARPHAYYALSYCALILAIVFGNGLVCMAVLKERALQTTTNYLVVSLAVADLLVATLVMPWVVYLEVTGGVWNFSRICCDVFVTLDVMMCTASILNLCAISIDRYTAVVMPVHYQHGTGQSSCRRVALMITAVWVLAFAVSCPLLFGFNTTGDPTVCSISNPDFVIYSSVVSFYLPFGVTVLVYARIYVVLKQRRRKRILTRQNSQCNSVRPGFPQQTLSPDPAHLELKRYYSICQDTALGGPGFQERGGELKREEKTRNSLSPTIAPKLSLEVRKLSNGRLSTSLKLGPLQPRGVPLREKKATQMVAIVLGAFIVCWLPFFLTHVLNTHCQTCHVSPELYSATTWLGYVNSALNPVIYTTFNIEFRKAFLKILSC
Sequence of 5-hydroxytryptamine receptor 2B (Homo sapiens) (P41595 whole entry): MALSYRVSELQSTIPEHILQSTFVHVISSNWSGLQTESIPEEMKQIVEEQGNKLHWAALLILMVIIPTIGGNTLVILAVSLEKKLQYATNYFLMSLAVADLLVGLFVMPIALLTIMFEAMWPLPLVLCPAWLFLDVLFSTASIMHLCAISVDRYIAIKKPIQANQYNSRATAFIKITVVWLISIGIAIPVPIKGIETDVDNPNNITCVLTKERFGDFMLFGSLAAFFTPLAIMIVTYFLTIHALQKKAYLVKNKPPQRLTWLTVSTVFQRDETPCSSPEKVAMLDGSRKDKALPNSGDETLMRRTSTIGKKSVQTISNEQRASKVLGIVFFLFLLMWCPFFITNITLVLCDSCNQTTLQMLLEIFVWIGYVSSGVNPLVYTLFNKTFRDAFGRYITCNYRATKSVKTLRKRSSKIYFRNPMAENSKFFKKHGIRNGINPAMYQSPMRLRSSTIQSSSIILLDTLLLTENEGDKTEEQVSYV
Sequence of Sodium-dependent dopamine transporter (Homo sapiens) (Q01959 whole entry): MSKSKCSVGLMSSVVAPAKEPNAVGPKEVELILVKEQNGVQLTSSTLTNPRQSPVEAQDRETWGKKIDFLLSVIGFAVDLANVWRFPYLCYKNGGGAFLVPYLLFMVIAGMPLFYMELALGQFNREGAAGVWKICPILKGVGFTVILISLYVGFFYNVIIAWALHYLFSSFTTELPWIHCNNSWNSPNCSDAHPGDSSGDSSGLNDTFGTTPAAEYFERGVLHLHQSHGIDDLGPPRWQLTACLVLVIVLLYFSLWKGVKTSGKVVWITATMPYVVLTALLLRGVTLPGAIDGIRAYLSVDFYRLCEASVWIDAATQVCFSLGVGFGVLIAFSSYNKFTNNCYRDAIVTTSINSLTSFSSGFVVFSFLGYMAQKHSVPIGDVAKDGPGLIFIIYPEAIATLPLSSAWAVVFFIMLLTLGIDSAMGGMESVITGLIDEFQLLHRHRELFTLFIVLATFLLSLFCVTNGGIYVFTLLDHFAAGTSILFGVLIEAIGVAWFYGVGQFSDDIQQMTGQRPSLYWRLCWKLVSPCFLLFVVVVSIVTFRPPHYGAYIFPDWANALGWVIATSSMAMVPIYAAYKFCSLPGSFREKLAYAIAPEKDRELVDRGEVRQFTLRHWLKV
Sequence of Muscarinic acetylcholine receptor M3 (Homo sapiens) (P20309 whole entry, looked up): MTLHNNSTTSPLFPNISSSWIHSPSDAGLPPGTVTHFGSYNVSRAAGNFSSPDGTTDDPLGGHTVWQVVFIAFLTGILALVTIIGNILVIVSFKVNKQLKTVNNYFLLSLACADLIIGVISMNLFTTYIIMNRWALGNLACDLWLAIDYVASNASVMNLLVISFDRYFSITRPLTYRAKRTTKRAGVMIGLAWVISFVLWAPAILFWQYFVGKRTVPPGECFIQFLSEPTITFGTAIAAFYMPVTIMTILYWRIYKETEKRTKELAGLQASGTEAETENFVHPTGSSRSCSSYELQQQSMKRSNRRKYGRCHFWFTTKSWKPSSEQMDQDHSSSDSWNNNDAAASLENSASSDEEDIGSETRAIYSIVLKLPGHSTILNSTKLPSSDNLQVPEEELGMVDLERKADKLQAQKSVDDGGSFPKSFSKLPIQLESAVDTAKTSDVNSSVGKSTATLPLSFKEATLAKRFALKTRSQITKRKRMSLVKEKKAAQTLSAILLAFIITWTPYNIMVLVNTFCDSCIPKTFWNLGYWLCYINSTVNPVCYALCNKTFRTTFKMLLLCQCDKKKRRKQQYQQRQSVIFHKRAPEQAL
Sequence of 5-hydroxytryptamine receptor 5A (Homo sapiens) (P47898 whole entry): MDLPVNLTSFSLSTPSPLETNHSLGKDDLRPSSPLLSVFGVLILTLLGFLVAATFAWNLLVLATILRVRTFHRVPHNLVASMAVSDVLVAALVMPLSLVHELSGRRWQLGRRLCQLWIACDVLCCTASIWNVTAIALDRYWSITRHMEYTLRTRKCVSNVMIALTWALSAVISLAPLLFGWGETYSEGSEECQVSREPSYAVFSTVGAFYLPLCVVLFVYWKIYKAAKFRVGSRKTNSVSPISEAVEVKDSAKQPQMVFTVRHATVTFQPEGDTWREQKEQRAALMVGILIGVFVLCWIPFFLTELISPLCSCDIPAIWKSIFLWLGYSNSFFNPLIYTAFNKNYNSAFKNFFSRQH

In the case of `COc1ccc(CNC(=O)c2cc(-c3cncc(Cl)c3)cnc2-c2ccccn2)nc1OC`, the inhibition in [1] was 17.4%; in test [2], -0.37%; in test [3], 36.3%; in test [4], -8.5%; in [5] it was -1.86%; in test [6], -6.96%. Also, the inhibition in [7] is 7.89%; in [8] it was -7.71%; in test [9], -9.92%; in test [10], 39%; in test [11], 5.15%; in [12] it was -7.15%.

Consider `O=C(O)CC1CCC2(CC1)CCN(c1cc(OC(F)(F)F)ccc1Cl)CC2`, for which the inhibition in test [1] was 31.1%; in [2], -5.1%; in test [3] it was 7.81%; in test [4], -1.2%; in test [7], 65.5%; in test [9] it was 0.58%. Further, the inhibition in [10] is 13.3%; in [11], 9.28%; in test [13], 7.8%.

Take `Cc1ccc(O)c([C@H](CCN(C(C)C)C(C)C)c2ccccc2)c1`: the inhibition in test [1] is 83.1%; in test [2] it was 99.8%; in test [3] it was 16.2%; in test [4], -6.09%; in [5], 35.3%; in test [6], 32.5%. In addition, the inhibition in test [7] is 46.2%; in test [8], 1.72%; in test [9], 19.5%; in test [10], 29.7%; in test [11] it was -9.16%; in test [12], 36.7%. Besides, the inhibition in test [13] was 0.61%.

For the compound `N#Cc1c(O)nc(SCc2cccc(F)c2F)nc1C1CC1`, the inhibition in test [2] is 5.27%; in test [3], 45.1%; in test [4], -4.01%; in test [5], -4.74%; in [6], 9.1%; in test [7], 2.3%. Also, the inhibition is 5.94% in [9]; 8.42% in test [14]; -1.64% in test [10]; 4.02% in test [11]; -6.93% in [12].

Turning to `OCc1cc(C(O)CNCCCCCCOCCCCc2ccccc2)ccc1O` (configuration not stated), the inhibition was 27.7% in test [1]; -8.98% in test [2]; 86.5% in [3]; 27.8% in [4]; 57.4% in test [5]; 90.4% in test [6]. The inhibition in test [7] was 59.6%; in test [8] it was 65.8%; in test [14] it was 9.07%; in [10] it was 98.7%; in test [11], 6.15%; in test [12], 74.1%.

In the case of `CN(C)S(=O)(=O)c1ccc(NC(=S)N2CCC(C(O)(c3ccccc3)c3ccccc3)CC2)cc1`, the inhibition in test [1] is 6.41%; in test [2], -7.46%; in test [3], 33.1%; in [4], 10.5%; in test [5], 8.69%; in test [6], 23.4%. Also, the inhibition is 21.5% in test [7]; 71.8% in test [9]; 15.8% in test [10]; -3.58% in test [11]; 14.4% in [12]; -6.86% in test [13].

Turning to `c1cc(CN2CCCNCCNCCCNCC2)ccc1CN1CCCNCCNCCCNCC1`, the inhibition was -5.42% in [1]; -4.94% in test [2]; 53.6% in test [3]; -6.66% in test [4]; 37.2% in test [7]; -0.54% in [8]. For the same compound, the inhibition in test [9] is -4.45%; in test [10], 33.4%; in test [11], 11.2%; in test [12], -9.59%; in test [13] it was 41.7%.

As to `N[C@H](C(=O)O)c1ccc(C(=O)O)c(C(=O)O)c1`, the inhibition is 11.7% in test [1]; 4.31% in test [2]; 44% in test [3]; 8.99% in test [4]; -8.24% in test [5]; 62.5% in test [7]. Also, the inhibition was 10.3% in test [8]; 6.53% in [9]; -7.78% in [14]; 54.5% in [10]; 15% in test [11]; -4.38% in test [12].

Take `CCCNS(=O)(=O)Nc1ncnc(OCCOc2ncc(Br)cn2)c1-c1ccc(Br)cc1`: the inhibition in [1] was 11.5%; in test [2] it was 20.8%; in test [3] it was 31.1%; in test [4] it was 9.06%; in test [7] it was 54.8%; in [8], 0.01%. The inhibition in test [10] is 53.5%; in [11], 8.98%; in [13] it was 6.06%.

`O=C(O)C1CN(Cc2ccc(-c3nc4cc(Cc5ccccc5F)ccc4s3)c(F)c2)C1`: the inhibition is 37.5% in test [1]; -1.67% in test [2]; 30.2% in test [3]; 11.5% in [4]; -6.1% in test [5]; -9.46% in test [6]. In addition, the inhibition was 91% in [7]; 66.8% in test [9]; 7.19% in test [14]; 20.8% in [10]; -0.17% in test [11].

These data come from ChEMBL document CHEMBL5442219.
